# How the values were obtained:
# Parameters in all cases: species or system rat
# [1] = system: ENaC; test: ENaC activity as amiloride-sensitive bumetanide-insensitive Isc, weanling distal colon; conditions: 10 μM; 2-3 week old rat distal colon
# Protocol: FIG. 17. The inhibitory effect of […] on ENaC was examined electrophysiologically by measuring amiloride-sensitive short-circuit current responses in the presence or absence of […]. Weanling infant distal colonic mucosa, which expresses highest activity of ENaC, is employed and mounted in Ussing chamber. FIGS. 19A-19C. […] Here, the activity of ENaC is measured as amiloride-sensitive bumetanide-insensitive Isc. […] FIGS. 20A-20C. […] The activity of ENaC was measured as amiloride-sensitive bumetanide-insensitive Isc. […] Secretory Cl current is mediated by apical CFTR. This Cl secretory Isc is sensitive to bumetanide, applied to the basolateral side of the epithelium. There, bumetanide inhibits Cl entry from blood into the cell; thus, in the presence of bumetanide, the secretory Cl current is eliminated. Absorptive Na current is mediated by apically located epithelial Na channel (ENaC). This latter current is particularly high in this weanling age and is sensitive to amiloride, when it is applied luminally.
# [2] = system: HCO3^− secretion by colonic mucosa; test: Acid-induced HCO3^− secretion (lumen pH recovery); conditions: 10 μM, serosa
# Protocol: (§1) Stripped mucosal sheets were mounted into Ussing chambers (window area=0.3-0.5 cm^2, Physiologic Instruments, San Diego, Calif.). The mucosal side of tissue was bathed with an unbuffered HCO3^−-free Cl^− Ringer solution (see Table 2 for detailed composition) circulated by a gas lift with 100% O2 while the serosal side was bathed with buffered Cl^− Ringer solution (pH 7.4) that contained 25 mM HCO3^− and gassed with 5% CO2/95% O2. Each side contained 3-5 ml of solution and the temperature of the solution was adjusted to and maintained at 37° C. by heated water-jacketed reservoirs. […]
# (§2) Two types of approaches were used in the measurement of colonic HCO3^− secretion, namely, measurement of lumen pH or pH stat titration of net alkalinization by colonic mucosa. […] The amount of the acid delivered per unit time per surface area was used to quantitate HCO3^− secretion by the mucosa. Measurements were recorded continuously and mean values for consecutive 5 or 10 min periods were averaged. The rate of HCO3^− secretion (JHCO3) is expressed as μEq/hr/cm^2. The short-circuit current (Isc) was measured in microamperes (μA) and converted into μEq/hr/cm^2. Tissue resistance (R, Ω cm^2) was calculated from Ohm's law. […]
# [3] = system: HCO3^− secretion by colonic mucosa; test: Secretagogue (forskolin)-induced HCO3^− secretion, lumen Cl^−-containing Ringer; conditions: 10 μM serosa, added after forskolin 500 nM
# Protocol: as §1, §2
# [4] = system: HCO3^− secretion by colonic mucosa; test: Basal HCO3^− secretion (pH stat JHCO3 and Isc, Ussing chamber)
# Protocol: Experiments were performed using non-fasting male Sprague-Dawley rats and C57BL/6 mice. Rats weighting 100-400 g were obtained from Charles River Laboratories. Mice lacking CaSR expression in intestinal epithelial cells (CaSR^−/−) and their CaSR^+/+ littermates were bred and maintained. CaSR^−/− mice were generated as previously described. Briefly, CaSR flox/flox mice were bred with transgenic mice expressing Cre Recombinase under the control of the villin 1 promoter and genotyped prior to all experiments after an approximate 10-12 generations. Mice were used at 5-10 weeks of age. Animals were fed and maintained on regular chow (Harlan) with free access to water before sacrifice. Animals were sacrificed with standard CO2 inhalation followed by cervical dislocation. The colons were isolated, cut open along the mesenteric border into a flat sheet, and flushed with ice-cold Ringer solutions. […]
# Two types of approaches were used in the measurement of colonic HCO3^− secretion, namely, measurement of lumen pH or pH stat titration of net alkalinization by colonic mucosa. […] The amount of the acid delivered per unit time per surface area was used to quantitate HCO3^− secretion by the mucosa. Measurements were recorded continuously and mean values for consecutive 5 or 10 min periods were averaged. The rate of HCO3^− secretion (JHCO3) is expressed as μEq/hr/cm^2. The short-circuit current (Isc) was measured in microamperes (μA) and converted into μEq/hr/cm^2. Tissue resistance (R, Ω cm^2) was calculated from Ohm's law.
# Two adjacent sheets of mucosa from each colon were mounted into two Ussing chambers and bathed luminally with HCO3^−-free Cl^− Ringer solution and serosally with HCO3^−-containing Cl^− Ringer solution. After 15 to 30 min, when Isc and JHCO3 had stabilized, the CaSR agonist, R568 was added to the serosal or mucosal side of tissue, and changes in Isc and JHCO3 during the 15-30 min period ensuing after the addition of the agonist were determined.
smiles,measurement,setting,value
"COc1cccc([C@@H](C)NCCCc2ccccc2Cl)c1.Cl [R568, 2-Chloro-N-[(1R)-1-(3-methoxyphenyl)ethyl]-benzenepropanamine hydrochloride]",bumetanide-insensitive amiloride-inhibitable ENaC-mediated basal Isc,[1],inhibited
same,acid-induced HCO3^− secretion (pH recovery rate),[2],transient but significant stimulation
same,effect on forskolin-induced HCO3^− secretion,[3],did not increase but rather decreased
same,basal JHCO3 response,"[4]; 10 μM, added to serosa",significantly stimulated
same,Isc in presence of R568,"[4]; basal, absence 1.36±0.40, n=5, p>0.05",1.48±0.44 μEq/hr/cm^2
same,effects of R568 compared with reduced Ca^2+o,[4]; under normal Ca^2+o condition,"qualitatively similar, albeit with a slightly less pronounced effect"

# — patent US20180153826A1, “MATERIALS AND METHODS FOR THE TREATMENT OF CYSTIC FIBROSIS” (UNIVERSITY OF FLORIDA RESEARCH FOUNDATION, INC., priority 2015, published 2018)
